Source: US20130303565A1 (priority 2012, published 2013)

Experiments:
[1] = tested on: TF1 (Human erythro leukemia cells); experiment: Cell proliferation assay (Trypan Blue dye exclusion), TF1; assay type: cell-based; conditions: tritoqualine 10^-5-10^-8 M, 72 hr, with or without G-CSF 50 ng/mL
Protocol: (§1) U937 (monocytic leukemia cells), and HL-60 (human promyelocytic cells) and TF1 (Human erythro leukemia cells) were obtained from cell bank of Necker. HL-60, U937 and TF1 were maintained. in RPMI-1640 medium supplemented with 10% FCS, 100 U/mL penicillin, and 100 μg/mL streptomycin. These cells were cultured in an incubator containing humidified air with 5% CO2 at […].
(§2) HL60, U937, TF1 cells (5×10^5 cells/mL) in conditioning medium were cultured with various concentrations of tritoqualine (10^−5-10^−8 M) in the presence or absence of G-CSF (50 ng/mL) in 6-well flat-bottomed plates for 72 hr. Cell proliferation assay and viability examination were performed using the Trypan Blue dye exclusion method. All experiments were performed in triplicate.
(§3) The maximum effect is on TF1 cells line. The inhibition is about 85%. The effect on HL60 is only 60% of inhibition. This effect dose is equivalent to the dose of 200 mg to 2000 mg of tritoqualine in human. This effect on leukemia clone is very surprising because tritoqualine is a molecule with low toxicity.

[2] = tested on: HL-60 (human promyelocytic cells); experiment: Cell proliferation assay (Trypan Blue dye exclusion), HL60; assay type: cell-based; conditions: tritoqualine 10^-5-10^-8 M, 72 hr, with or without G-CSF 50 ng/mL
Protocol: as §1, §2, §3

[3] = tested on: U937 (monocytic leukemia cells); experiment: Cell proliferation assay (Trypan Blue dye exclusion), U937; assay type: cell-based; conditions: each leukemic cell line incl. U937, tritoqualine 10^-5-10^-8 M, 72 hr
Protocol: as §1, §2, §3

histamine H4 = histamine H4 (Homo sapiens, UniProt Q9H3N8); experiment: Histamine H4 agonist activity
Chain of histamine H4 (Q9H3N8 whole entry): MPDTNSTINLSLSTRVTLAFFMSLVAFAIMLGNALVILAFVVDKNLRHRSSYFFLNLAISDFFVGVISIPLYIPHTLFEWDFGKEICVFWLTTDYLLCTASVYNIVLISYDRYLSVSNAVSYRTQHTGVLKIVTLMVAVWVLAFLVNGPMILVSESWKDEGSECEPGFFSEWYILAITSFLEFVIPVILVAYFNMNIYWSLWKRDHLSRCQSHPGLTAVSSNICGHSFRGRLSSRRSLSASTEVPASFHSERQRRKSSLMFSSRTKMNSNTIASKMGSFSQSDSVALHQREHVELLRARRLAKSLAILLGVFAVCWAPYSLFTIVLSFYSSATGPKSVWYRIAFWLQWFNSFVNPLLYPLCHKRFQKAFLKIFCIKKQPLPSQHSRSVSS

Bcr-Abl tyrosine kinase = conditions: inhibiting activity of the Bcr-Abl tyrosine kinase and proliferation, versus imatinib; cited from earlier work

Row | SMILES | inhibition of proliferation and viability (maximum effect) [1] | inhibition of proliferation and viability [2] [%] | inhibition of proliferation and viability (in words) [3] | histamine H4 activity (in words) (histamine H4) | potency relative to imatinib (Bcr-Abl tyrosine kinase)
1 | CCOc1c(N)c2c(c(OCC)c1OCC)C(C1c3c(cc4c(c3OC)OCO4)CCN1C)OC2=O (centres unmarked) [tritoqualine, 7-Amino-4,5,6-triethoxy-3-(5,6,7,8-tetrahydro-4-methoxy-6-methyl-1,3-dioxolo[4,5-g]isoquinolin-5-yl) phthalide] | about 85% | 60 | dose-dependently inhibited proliferation and viability | histamine H4 agonist | –
2 | Cc1cn(-c2cc(NC(=O)c3ccc(C)c(Nc4nccc(-c5cccnc5)n4)c3)cc(C(F)(F)F)c2)cn1 [Nilotinib] | – | – | – | – | 10-30 fold
